Assay results as given in patent US11767295B2, “Isoindole derivative” (TIANJIN HEMAY PHARMACEUTICAL CO., LTD., priority 2018, dated 2023).

Assays:
Format in all cases: in vivo
[1] = test system: DNCB-induced atopic dermatitis in Balb/c mice; test: Efficacy evaluation test of DNCB-induced atopic dermatitis in Balb/c mice model (Biological Example 1); conditions: BID × 10
Description: 60 healthy male SPF Balb/c mice, each of which the body weight was 19-21 g, were randomly divided into 6 groups by body weight. There were 10 mice in each group.
(§1) Before the test, the hair around the right ear of the mouse was removed to reduce the interference in the drug adhesion to the hair.
(§2) The start of the test was recorded as Day 1. The specific time for measuring ear thickness was slightly adjusted based on FIG. 1. After the end of the 18th day of the test, blood was taken from each animal to detect the concentration of immunoglobulin (IgE) in the serum (in accordance with the kit instructions). Both ears of the animal were cut off. Ear pieces were cut by an 8 mm punch at the fixed position of the ears and weighed. Differences in the swelling degrees of two ears were calculated.
(§3) The changes in mouse ear thickness and the ear weights of the same area and the IgE concentrations in the serum among different groups on the 18th day were analyzed and compared statistically with One-Way Anova in SPSS 17, respectively. The G test method was used to delete outliers. p<0.05 indicated there were statistical differences. Ear swelling degree (mg)=right ear weight (mg)−left ear weight (mg); Ear thickness change (mm)=right ear thickness (mm)−left ear thickness (mm); Inhibitory rate of ear swelling degree (%)=1−(ear swelling degree of drug administration group−ear swelling degree of blank control group)/(ear swelling degree of model control group−ear swelling degree of blank control group)×100%; Inhibitory rate of ear thickness change (%)=1−(ear thickness change of drug administration group−ear thickness change of blank control group)/(ear thickness change of model control group−ear thickness change of blank control group)×100%; Inhibitory rate of IgE (%)=1−(IgE concentration in administration group−IgE concentration in blank control group)/(IgE concentration in model control group−IgE concentration in blank control group)×100%.

[2] = test system: Phorbol ester (TPA)-induced ear swelling in mice; test: Inhibition of phorbol ester (TPA)-induced ear swelling in mice (Biological Example 4); conditions: ICR mice, 30 mg/mL in acetone, 40 μL in 2 administrations on right ear; 5 hours after TPA modeling
Description: 40 male ICR mice were selected and divided into 5 groups. There were 8 mice in each group.
Before the test, the animals were grouped and the hair around the right ear of the mice was removed.
20 μL of respective drug was applied to the animals in each test group (a blank solvent was applied to the model control group). Modeling and induction were carried out after 1 h 10 min. Except for the blank group, 20 μL of TPA at a concentration of 125 μg/mL were applied to the right ears of the animals for induction. After induction for 10 minutes, 20 μL of respective drug was applied to the right ears of the animals in each test group (a blank solvent was applied to the model control group).
After modeling for 5 hours, ear pieces of both sides on the same location of animals in each group were taken with a punch and weighed to calculate the ear swelling degree, ear swelling rate and inhibitory rate.
The ear swelling degree and ear swelling rate after modeling and administration for 5 hours were analyzed and tested with One-Way ANOVA multiple-group test index in SPSS17.0. P<0.05 indicated there were statistical differences. Ear swelling degree (mg)=right ear weight (mg)−left ear weight (mg); Ear swelling rate (%)=(right ear weight−left ear weight)/left ear weight×100%; Inhibitory rate of ear swelling degree (%)=1−(ear swelling degree of drug administration group−ear swelling degree of blank control group)/(ear swelling degree of model control group−ear swelling degree of blank control group)×100%.

[3] = test system: DNCB-induced atopic dermatitis in Balb/c mice; test: Efficacy evaluation test of DNCB-induced atopic dermatitis in Balb/c mice model (Biological Example 3); conditions: BID × 11
Description: 30 healthy male SPF Balb/c mice, each of which the weight was 19-21 g, were randomly divided into 3 groups by body weight. There were 10 mice in each group.
as §1
as §2, with “thickness and body weight” for “thickness”, “FIG. 3.” for “FIG. 1.”, “the Day 19” for “the 18th day”, “swelling degree” for “swelling degrees”
as §3, with “of” for “among”, “19th” for “18th”

[4] = Balb/c mice, 1 mg/mouse on ear, Day 10, Mean ± S.D.
[5] = Balb/c mice, 1 mg/mouse on ear, Day 17, Mean ± S.D.
[6] = Balb/c mice, 1 mg/mouse on ear, Day 18, Mean ± S.D.
[7] = 0.1 mg/mouse on ear, 19th day, vs model and blank control

Weight Changes of Animals, Day 1 ([1]; Balb/c mice, 1 mg/mouse (50 mg/mL, 20 μL) on ear, Day 1, Mean ± S.D.): 20.6 ± 0.8 g | Weight Changes of Animals, Day 10 [1, 4]: 22.3 ± 1.1 g | Weight Changes of Animals, Day 17 [1, 5]: 21.8 ± 1.3 g | Weight Changes of Animals, Day 18 [1, 6]: 22.4 ± 1.3 g | Weight Changes of Animals, Day 1 ([3]; Balb/c mice, 0.1 mg/mouse (5 mg/mL, 20 μL) on ear, Day 1, Mean): 20.5 g | Weight Changes of Animals, Day 8 ([3]; Balb/c mice, 0.1 mg/mouse on ear, Day 8, Mean): 21.8 g | Weight Changes of Animals, Day 12 ([3]; Balb/c mice, 0.1 mg/mouse on ear, Day 12, Mean): 21.9 g | Weight Changes of Animals, Day 14 ([3]; Balb/c mice, 0.1 mg/mouse on ear, Day 14, Mean): 22.2 g | Weight Changes of Animals, Day 16 ([3]; Balb/c mice, 0.1 mg/mouse on ear, Day 16, Mean): 22.0 g | Weight Changes of Animals, Day 19 ([3]; Balb/c mice, 0.1 mg/mouse on ear, Day 19, Mean): 22.3 g
SMILES: CCOc1cc([C@H](CC(=O)OC)N2C(=O)c3cccc(NC(C)=O)c3C2=O)ccc1OC [Example 10, methyl (S)-3-(4-acetamido-1,3-dioxoisoindolin-2-yl)-3-(3-ethoxy-4-methoxyphenyl)propionate]
Inhibitory Rate of Ear Swelling Degree ([1]; 1 mg/mouse on ear, 18th day, vs model and blank control): 45.7% | Inhibitory Rate of Ear Thickness ([1]; Balb/c mice, 1 mg/mouse on ear, 18th day, vs model and blank control): 58.8% | Ear Thickness Change, Day 1 ([1]; Balb/c mice, 1 mg/mouse on ear, Day 1, Mean ± S.D.): 0.21 ± 0.01 mm | Ear Thickness Change, Day 10 [1, 4]: 0.35 ± 0.07 mm | Ear Thickness Change, Day 17 [1, 5]: 0.46 ± 0.10 mm | Ear Thickness Change, Day 18 [1, 6]: 0.44 ± 0.07 mm | Ear Thickness ([1]; Table 4, Balb/c mice, 1 mg/mouse on ear, 18th day): 0.44 ± 0.07 mm | Ear Swelling Degree ([1]; right minus left ear piece weight (8 mm punch), 1 mg/mouse on ear, 18th day): 13.7 ± 2.9 mg | IgE Concentration ([1]; serum, 1 mg/mouse on ear, 18th day): 4366.7 ± 1933.9 ng/mL | Inhibitory Rate of IgE Concentration ([1]; serum, 1 mg/mouse on ear, 18th day, vs model and blank control): 57.5% | Inhibitory Rate of Ear Swelling Degree [2]: 71.7% | Inhibitory Rate of Ear Swelling [3, 7]: 38.5% | Inhibitory Rate of Ear Thickness [3, 7]: 27.1% | Ear Thickness Change, Day 1 ([3]; Balb/c mice, 0.1 mg/mouse on ear, Day 1, Mean ± S.D.): 0.26 ± 0.01 mm | Ear Thickness Change, Day 10 ([3]; Balb/c mice, 0.1 mg/mouse on ear, Day 10, Mean ± S.D.): 0.52 ± 0.11 mm | Ear Thickness Change, Day 17 ([3]; Balb/c mice, 0.1 mg/mouse on ear, Day 17, Mean ± S.D.): 0.65 ± 0.09 mm | Ear Thickness Change, Day 19 ([3]; Balb/c mice, 0.1 mg/mouse on ear, Day 19, Mean ± S.D.): 0.63 ± 0.05 mm | Ear Thickness ([3]; Table 11, 0.1 mg/mouse on ear, 19th day): 0.63 mm | Ear Swelling Degree ([3]; right minus left ear piece weight, 0.1 mg/mouse on ear, 19th day): 7.7 mg | IgE Concentration ([3]; serum, 0.1 mg/mouse on ear, 19th day): 5543.4 ng/mL | Inhibitory Rate of IgE Concentration ([3]; serum, 0.1 mg/mouse on ear, 19th day, vs model and blank control): 29.7%
